Assay results taken from ChEMBL document CHEMBL1126355, “The basis for slowly reversible inhibition of dehydroquinate synthase: a case of mistaken identity?” (Bioorg Med Chem Lett, 1992).

Key:
[1] = target: T1, 3-dehydroquinate synthase (Escherichia coli K-12) (UniProt P07639); assay: Type of inhibition of 3-dehydroquinate synthase was determined; R - Slowly reversible
T1 sequence (whole entry): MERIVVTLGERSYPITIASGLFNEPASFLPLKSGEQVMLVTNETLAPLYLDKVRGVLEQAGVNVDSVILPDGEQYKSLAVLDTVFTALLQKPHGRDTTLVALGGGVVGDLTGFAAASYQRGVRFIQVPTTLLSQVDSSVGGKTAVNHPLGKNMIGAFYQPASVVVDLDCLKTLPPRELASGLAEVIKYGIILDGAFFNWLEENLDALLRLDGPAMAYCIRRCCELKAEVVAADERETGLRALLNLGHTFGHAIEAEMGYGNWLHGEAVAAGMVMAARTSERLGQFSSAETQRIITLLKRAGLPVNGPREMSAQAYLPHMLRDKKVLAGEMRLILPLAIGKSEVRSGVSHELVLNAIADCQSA

[2] = target: T2, 3-dehydroquinate synthase (Escherichia coli K-12, UniProt P07639); assay: Inhibition constant against 3-dehydroquinate synthase
T2 sequence (P07639 whole entry): T1 sequence (whole entry)

[3] = target: T1, 3-dehydroquinate synthase (Escherichia coli K-12); assay: […] rate constant against 3-dehydroquinate synthase
[4] = target: T1, 3-dehydroquinate synthase (Escherichia coli K-12); assay: Rate constant against 3-dehydroquinate synthase

inhibition [1]	Ki [2]	k off [3]	k on [4]	SMILES
R	540 nM	0.00054 s⁻¹	1000 M⁻¹ s⁻¹	O=C(O)C1(O)CC(O)CC(CP(=O)(O)O)C1 (centres undefined)
R	5.4 nM	0.00075 s⁻¹	140000 M⁻¹ s⁻¹	O=C(O)C1(O)CC(O)C(O)C(CP(=O)(O)O)C1 (centres undefined)

SMILES	inhibition [1]	Ki [2]	k off [3]	k on [4]
O=C(O)C1(O)CCC(O)C(CP(=O)(O)O)C1 (centres undefined)	R			
